Test results from patent US12202835B2, “Substituted aromatic ring-linked dioxinoquinazolines and dioxinoquinolines as kinase inhibitors” (BEIJING SCITECH-MQ PHARMACEUTICALS LIMITED, priority 2018, dated 2025).

Tests used:
[1] = target: MER kinase (Homo sapiens (Human), UniProt Q12866); experiment: Assay of small molecular compounds for inhibiting the activity of MER kinase (LANCE TR-FRET); format: biochemical
Procedure, shortened: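 MER kinase preincubated 5 min at RT with compound (11 points, 0.042-2500 nM final), then ULight-poly GT and ATP added (4× stocks 200 nM and 20 μM) for 60 min at RT, 1% DMSO. Phosphorylation detected by LANCE TR-FRET; IC50 from % inhibition versus controls.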

[2] = system: Ba/F3 LMNA-NTRK1 cells; experiment: Assay for inhibiting the proliferation of Ba/F3 LMNA-NTRK1 cells (CCK-8); format: cell-based; settings: Mus musculus, BaF3
Procedure, shortened: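 Cells were seeded and cultured overnight, then treated with graded compound concentrations (final DMSO 0.25%) for 72 h. CCK-8 was added for 1–2 h at 37 °C and OD450 read. Survival was normalised to untreated and cell-free blank wells, and IC50 was fitted.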

[3] = target: TRKA kinase (Homo sapiens (Human), UniProt P04629); experiment: Assay of small molecular compounds for inhibiting the activity of TRKA kinase (LANCE TR-FRET); format: biochemical
Procedure, shortened: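 LANCE TR-FRET with ULight-TK peptide; compounds pre-incubated 5 min with TRKA (2× solution 2 nM), then substrate/ATP added (4× mix: 400 nM peptide, 40 μM ATP). Reaction 60 min at room temperature in dark, 1% DMSO final; stopped, detection developed 60 min, signal read.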

Chain of TRKA kinase (P04629 33-796): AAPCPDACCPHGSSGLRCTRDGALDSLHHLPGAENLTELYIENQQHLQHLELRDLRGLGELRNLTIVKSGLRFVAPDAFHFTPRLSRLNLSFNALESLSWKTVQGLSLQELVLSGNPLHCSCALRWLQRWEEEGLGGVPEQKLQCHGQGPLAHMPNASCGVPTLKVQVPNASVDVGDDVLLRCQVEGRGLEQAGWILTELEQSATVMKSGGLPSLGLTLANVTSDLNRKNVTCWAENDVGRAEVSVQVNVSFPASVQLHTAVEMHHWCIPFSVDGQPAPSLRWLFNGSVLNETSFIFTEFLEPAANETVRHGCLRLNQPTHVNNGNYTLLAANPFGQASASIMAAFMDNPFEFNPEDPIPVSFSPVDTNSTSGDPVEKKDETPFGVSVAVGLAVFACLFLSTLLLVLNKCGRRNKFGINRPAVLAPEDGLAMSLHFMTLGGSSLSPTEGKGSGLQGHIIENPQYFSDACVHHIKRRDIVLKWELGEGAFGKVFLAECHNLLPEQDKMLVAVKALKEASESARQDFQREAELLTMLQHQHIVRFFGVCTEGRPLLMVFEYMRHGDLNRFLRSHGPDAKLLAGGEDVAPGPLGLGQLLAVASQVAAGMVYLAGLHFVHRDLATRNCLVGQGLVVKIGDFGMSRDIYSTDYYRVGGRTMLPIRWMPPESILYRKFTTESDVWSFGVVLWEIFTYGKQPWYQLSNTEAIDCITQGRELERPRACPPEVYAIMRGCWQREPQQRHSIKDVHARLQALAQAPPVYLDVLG
Chain of MER kinase (Q12866 21-999): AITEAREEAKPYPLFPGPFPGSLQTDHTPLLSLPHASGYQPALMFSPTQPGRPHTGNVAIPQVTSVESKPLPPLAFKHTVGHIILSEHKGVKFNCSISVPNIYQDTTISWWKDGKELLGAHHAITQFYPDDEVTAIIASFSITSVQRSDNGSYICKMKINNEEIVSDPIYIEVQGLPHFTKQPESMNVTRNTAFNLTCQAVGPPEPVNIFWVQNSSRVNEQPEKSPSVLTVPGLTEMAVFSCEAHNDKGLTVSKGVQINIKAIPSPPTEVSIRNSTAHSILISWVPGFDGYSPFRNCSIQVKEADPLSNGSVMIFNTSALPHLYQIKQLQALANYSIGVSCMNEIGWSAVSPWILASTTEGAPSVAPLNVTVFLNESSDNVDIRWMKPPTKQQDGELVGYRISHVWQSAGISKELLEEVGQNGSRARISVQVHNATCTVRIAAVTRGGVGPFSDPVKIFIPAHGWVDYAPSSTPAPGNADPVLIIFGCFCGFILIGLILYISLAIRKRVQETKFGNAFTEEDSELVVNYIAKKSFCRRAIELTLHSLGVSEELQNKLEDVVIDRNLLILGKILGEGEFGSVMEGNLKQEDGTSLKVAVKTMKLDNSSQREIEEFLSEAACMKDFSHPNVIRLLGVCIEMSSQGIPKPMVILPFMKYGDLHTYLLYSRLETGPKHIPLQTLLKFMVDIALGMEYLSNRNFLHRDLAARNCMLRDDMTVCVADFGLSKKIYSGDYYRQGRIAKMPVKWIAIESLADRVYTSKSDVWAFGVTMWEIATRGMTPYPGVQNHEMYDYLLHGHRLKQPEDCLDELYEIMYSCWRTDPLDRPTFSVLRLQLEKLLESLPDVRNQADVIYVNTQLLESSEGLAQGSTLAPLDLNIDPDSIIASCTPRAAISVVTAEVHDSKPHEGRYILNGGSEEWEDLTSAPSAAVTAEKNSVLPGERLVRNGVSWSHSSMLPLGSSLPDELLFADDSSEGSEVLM

Row | IC50 [1] | IC50 [2] | IC50 [3] | Compound
1 | ≤ 0.05 µM | < 0.05 µM | < 0.05 µM | COc1cc2ncnc(Oc3ccc(NC(=O)c4cn(C)c(=O)n(-c5ccc(F)cc5)c4=O)cc3F)c2c2c1OCCO2 [Example 29, N-(3-fluoro-4-((5-methoxy-2,3-dihydro-[1,4]dioxino[2,3-f]quinazolin-10-yl)oxy)phenyl)-3-(4-fluorophenyl)-1-methyl-2,4-dioxo-1,2,3,4-tetrahydropyrimidine-5-carboxamide]
2 | ≤ 0.05 µM | < 0.05 µM | < 0.05 µM | CCn1cc(C(=O)Nc2ccc(Oc3ccnc4cc(OC)c5c(c34)OCCO5)c(F)c2)c(=O)n(-c2ccc(F)cc2)c1=O [Example 37, N-(3-fluoro-4-((5-methoxy-2,3-dihydro-[1,4]dioxino[2,3-f]quinolin-10-yl)oxy)phenyl)-3-(4-fluorophenyl)-1-ethyl-2,4-dioxo-1,2,3,4-tetrahydropyrimidine-5-carboxamide]
3 | ≤ 0.05 µM | < 0.05 µM | < 0.05 µM | COc1cc2nccc(Oc3ccc(NC(=O)c4cn(C)c(=O)n(-c5ccc(F)cc5)c4=O)cc3F)c2c2c1OCCO2 [Example 13, N-(3-fluoro-4-((5-methoxy-2,3-dihydro-[1,4]dioxino[2,3-f]quinolin-10-yl)oxy)phenyl)-3-(4-fluorophenyl)-1-methyl-2,4-dioxo-1,2,3,4-tetrahydropyrimidine-5-carboxamide]
4 | ≤ 0.05 µM | < 0.05 µM | < 0.05 µM | CCn1cc(C(=O)Nc2ccc(Oc3ccnc4cc(OCCCN5CCOCC5)c5c(c34)OCCO5)c(F)c2)c(=O)n(-c2ccc(F)cc2)c1=O [Example 38, N-(3-fluoro-4-((5-(3-morpholinopropoxy)-2,3-dihydro-[1,4]dioxino[2,3-f]quinolin-10-yl)oxy)phenyl)-3-(4-fluorophenyl)-1-ethyl-2,4-dioxo-1,2,3,4-tetrahydropyrimidine-5-carboxamide]
5 | ≤ 0.05 µM | < 0.05 µM | < 0.05 µM | CCOc1ccn(-c2ccc(F)cc2)c(=O)c1C(=O)Nc1ccc(Oc2ccnc3cc(OC)c4c(c23)OCCO4)c(F)c1 [Example 19, N-(3-fluoro-4-((5-methoxy-2,3-dihydro-[1,4]dioxino[2,3-f]quinolin-10-yl)oxy)phenyl)-1-(4-fluorophenyl)-4-ethoxy-2-oxo-1,2-dihydropyridine-3-carboxamide]
6 | ≤ 0.05 µM | < 0.05 µM | < 0.05 µM | O=C(Nc1ccc(Oc2ccnc3cc(OCCCN4CCOCC4)c4c(c23)OCCO4)cc1Cl)c1cccn(-c2ccc(F)cc2)c1=O [Example 143, N-(2-chloro-4-((5-(3-morpholinopropoxy)-2,3-dihydro-[1,4]dioxino[2,3-f]quinolin-10-yl)oxy)phenyl)-1-(4-fluorophenyl)-2-oxo-1,2-dihydropyridine-3-carboxamide]
7 | ≤ 0.05 µM | < 0.05 µM | < 0.05 µM | CCOc1ccn(-c2ccc(F)cc2)c(=O)c1C(=O)Nc1ccc(Oc2ccnc3cc(OCCCN4CCOCC4)c4c(c23)OCCO4)c(F)c1 [Example 22, N-(3-fluoro-4-((5-(3-morpholinopropoxy)-2,3-dihydro-[1,4]dioxino[2,3-f]quinolin-10-yl)oxy)phenyl)-1-(4-fluorophenyl)-4-ethoxy-2-oxo-1,2-dihydropyridine-3-carboxamide]
8 | ≤ 0.05 µM | > 1 µM | < 0.05 µM | COc1cc2nccc(Oc3ccc(NC(=O)c4cn(CC(=O)O)c(=O)n(-c5ccc(F)cc5)c4=O)cc3F)c2c2c1OCCO2 [Example 104, 2-(5-((3-fluoro-4-((5-methoxy-2,3-dihydro-[1,4]dioxino[2,3-f]quinolin-10-yl)oxy)phenyl)carbamoyl)-3-(4-fluorophenyl)-2,4-dioxo-3,4-dihydropyrimidin-1(2H)-yl)acetic acid]
9 | ≤ 0.05 µM | < 0.05 µM | < 0.05 µM | CC(C)n1cc(C(=O)Nc2ccc(Oc3ccnc4cc(OCC(C)(C)O)c5c(c34)OCCO5)c(F)c2)c(=O)n(-c2ccc(F)cc2)c1=O [Example 122, N-(3-fluoro-4-((5-(2-hydroxy-2-methylpropoxy)-2,3-dihydro-[1,4]dioxino[2,3-f]quinolin-10-yl)oxy)phenyl)-3-(4-fluorophenyl)-1-isopropyl-2,4-dioxo-1,2,3,4-tetrahydropyrimidine-5-carboxamide]
10 | 0.05 to 0.5 µM | < 0.05 µM | < 0.05 µM | Cn1cc(C(=O)Nc2ccc(Oc3ccnc4cc(OCC(C)(C)O)c5c(c34)OCCO5)cc2Cl)c(=O)n(-c2ccc(F)cc2)c1=O [Example 141, N-(2-chloro-4-((5-(2-hydroxy-2-methylpropoxy)-2,3-dihydro-[1,4]dioxino[2,3-f]quinolin-10-yl)oxy)phenyl)-3-(4-fluorophenyl)-1-methyl-2,4-dioxo-1,2,3,4-tetrahydropyrimidine-5-carboxamide]
11 | ≤ 0.05 µM | < 0.05 µM | < 0.05 µM | CCn1cc(C(=O)Nc2ccc(Oc3ccnc4cc(OCCCN5CCCCC5)c5c(c34)OCCO5)c(F)c2)c(=O)n(-c2ccc(F)cc2)c1=O [Example 41, N-(3-fluoro-4-((5-(3-(piperidin-1-yl)propoxy)-2,3-dihydro-[1,4]dioxino[2,3-f]quinolin-10-yl)oxy)phenyl)-3-(4-fluorophenyl)-1-ethyl-2,4-dioxo-1,2,3,4-tetrahydropyrimidine-5-carboxamide]
